In the oligonucleotide strings, read from the 5' end, every base follows the letter of its sugar. An asterisk marks phosphorothioate; unmarked linkages are phosphodiester. Other units and linkages are bracketed, terminal groups are in braces. A string of capitals states the bases alone. e = 2'-O-(2-methoxyethyl) (MOE); [5mC] = 5-methylcytosine; d = 2'-deoxy (DNA)
Key:
[1] = High fat fed mice (Example 51): total, LDL- and HDL-cholesterol levels; format: in vivo, mouse; conditions: 50 mg/kg i.p. twice weekly
Protocol: In a further embodiment of the invention, the inhibition of apolipoprotein B mRNA in mice was compared to liver oligonucleotide concentration, total cholesterol, LDL-cholesterol and HDL-cholesterol. Male C57Bl/6 mice receiving a high fat diet (60% fat) were evaluated over the course of 6 weeks for the effects of treatment with twice weekly intraperitoneal injections of 50 mg/kg ISIS 147764 (SEQ ID NO: 109) or 50 mg/kg of the control oligonucleotide ISIS 141923 (SEQ ID NO: 858). Control animals received saline treatment. Animals were sacrificed after 2 days, 1, 2, 4 and 6 weeks of treatment. Each treatment group at each time point consisted of 8 mice.
Target expression in liver was measured by real-time PCR as described by other examples herein and is expressed as percent inhibition relative to saline treated mice. Total, LDL- and HDL-cholesterol levels were measured by routine clinical analysis using an Olympus Clinical Analyzer (Olympus America Inc., Melville, N.Y.) and are presented in mg/dL. Results from saline-treated animals are shown for comparison. Intact oligonucleotide in liver tissue was measured by capillary gel electrophoresis and is presented as micrograms of oligonucleotide per gram of tissue.
The oligonucleotide treatments described in this example were duplicated to investigate the extent to which effects of ISIS 147764 persist following cessation of treatment. Mice were treated as described, and sacrificed 1, 2, 4, 6 and 8 weeks following the cessation of oligonucleotide treatment.

[2] = system: mouse apolipoprotein B mRNA; test: High fat fed mice (Example 65): mouse apolipoprotein B mRNA and serum cholesterol levels; format: in vivo
Protocol: Male C57Bl/6 mice were divided into the following groups, consisting of 5 animals each: (1) mice on a lean diet, injected with saline (lean control); (2) mice on a high fat diet; (3) mice on a high fat diet injected with 50 mg/kg of the control oligonucleotide 141923 (SEQ ID NO: 858); (4) mice on a high fat diet given 20 mg/kg atorvastatin calcium (Lipitor®, Pfizer Inc.); (5) mice on a high fat diet injected with 10, 25 or 50 mg/kg ISIS 147764 (SEQ ID NO: 109). Saline and oligonucleotide treatments were administered intraperitoneally twice weekly for 6 weeks. Atorvastatin was administered daily for 6 weeks. At study termination, liver samples were isolated from each animal and RNA was isolated for Northern blot qualitative assessment, DNA microarray and quantitative real-time PCR. Northern blot assessment and quantitative real-time PCR were performed as described by other examples herein.
Mouse apolipoprotein B mRNA and serum cholesterol levels, measured as described herein, were evaluated to confirm antisense inhibition by ISIS 147764 and ISIS 147483. […] The 50 mg/kg dose of ISIS 147483 increased ALT and AST levels.

[3] = high fat fed male C57Bl/6 mice, treatment period 1 week
[4] = high fat fed male C57Bl/6 mice, treatment period 2 weeks
[5] = high fat fed male C57Bl/6 mice, treatment period 4 weeks
[6] = high fat fed male C57Bl/6 mice, treatment period 6 weeks
[7] = high fat fed male C57Bl/6 mice, treatment period 2 days
[8] = high fat fed mice, 1 week after cessation of dosing
[9] = high fat fed mice, 2 weeks after cessation of dosing
[10] = high fat fed mice, 4 weeks after cessation of dosing
[11] = high fat fed mice, 6 weeks after cessation of dosing
[12] = high fat fed mice, 8 weeks after cessation of dosing

Q: With “147764 (eG*eT*e[5mC]*e[5mC]*e[5mC]*dT*dG*dA*dA*dG*dA*dT*dG*dT*d[5mC]*eA*eA*eT*eG*e[5mC]) [compound 147764]” as the substance, how does the HDL-cholesterol [1, 3] read?
A: Its HDL-cholesterol is 107 mg/dL.

Q: And the LDL-cholesterol [1, 3]?
A: Its LDL-cholesterol is 19 mg/dL.

Q: What about the Total cholesterol [1, 3] of the same substance?
A: The Total cholesterol was 128 mg/dL.

Q: And the HDL-cholesterol [1, 4]?
A: The HDL-cholesterol was 105 mg/dL.

Q: And the LDL-cholesterol [1, 4]?
A: The LDL-cholesterol was 14 mg/dL.

Q: What about the Total cholesterol [1, 4] of the same substance?
A: The Total cholesterol was 121 mg/dL.

Q: What about the HDL-cholesterol [1, 5] of the same substance?
A: Its HDL-cholesterol is 66 mg/dL.

Q: What about the LDL-cholesterol [1, 5] of the same substance?
A: The LDL-cholesterol was 7 mg/dL.

Q: And the Total cholesterol [1, 5]?
A: Its Total cholesterol is 75 mg/dL.

Q: What about the HDL-cholesterol [1, 6] of the same substance?
A: The HDL-cholesterol was 64 mg/dL.

Q: What about the LDL-cholesterol [1, 6] of the same substance?
A: The LDL-cholesterol was 7 mg/dL.

Q: What about the Total cholesterol [1, 6] of the same substance?
A: Its Total cholesterol is 73 mg/dL.

Q: What about the HDL-cholesterol [1, 7] of the same substance?
A: The HDL-cholesterol was 76 mg/dL.

Q: And the LDL-cholesterol [1, 7]?
A: The LDL-cholesterol was 7 mg/dL.

Q: And the Total cholesterol [1, 7]?
A: Its Total cholesterol is 101 mg/dL.

Q: What about the HDL-cholesterol [1, 8] of the same substance?
A: The HDL-cholesterol was 51 mg/dL.

Q: What about the LDL-cholesterol [1, 8] of the same substance?
A: The LDL-cholesterol was 14 mg/dL.

Q: And the Total cholesterol [1, 8]?
A: The Total cholesterol was 69 mg/dL.

Q: What about the HDL-cholesterol [1, 9] of the same substance?
A: Its HDL-cholesterol is 49 mg/dL.

Q: What about the LDL-cholesterol [1, 9] of the same substance?
A: The LDL-cholesterol was 14 mg/dL.

Q: What about the Total cholesterol [1, 9] of the same substance?
A: The Total cholesterol was 67 mg/dL.

Q: And the HDL-cholesterol [1, 10]?
A: The HDL-cholesterol was 79 mg/dL.

Q: And the LDL-cholesterol [1, 10]?
A: The LDL-cholesterol was 18 mg/dL.

Q: And the Total cholesterol [1, 10]?
A: The Total cholesterol was 111 mg/dL.

Q: What about the HDL-cholesterol [1, 11] of the same substance?
A: The HDL-cholesterol was 100 mg/dL.

Q: And the LDL-cholesterol [1, 11]?
A: The LDL-cholesterol was 24 mg/dL.

Q: And the Total cholesterol [1, 11]?
A: The Total cholesterol was 138 mg/dL.

Q: What about the HDL-cholesterol [1, 12] of the same substance?
A: The HDL-cholesterol was 94 mg/dL.

Q: What about the LDL-cholesterol [1, 12] of the same substance?
A: The LDL-cholesterol was 21 mg/dL.

Q: And the Total cholesterol [1, 12]?
A: Its Total cholesterol is 135 mg/dL.

Q: For “GTCCCTGAAGATGTCAATGC (2'-MOE gapmer, further chemistry not given here) [ISIS 147764]”, which “mouse apolipoprotein B mRNA and serum cholesterol levels” value [2] is on record?
A: Its value is “lowered in a dose-dependent manner”.

— patent US7803930B2, “Antisense modulation of apolipoprotein B-expression” (Isis Pharmaceuticals, Inc., priority 2002, dated 2010)
